{
  "source": "patent US12653800B2",
  "about": "“Small molecule inhibitors of TLR2 signaling” (University of Maryland, Baltimore, priority 2015, dated 2026)",
  "key": {"[1]": {"test_system": "HEK-TLR2 stable transfectants", "assay": "LDH release cytotoxicity assay", "type": "cell-based, human", "details": "C29 10 μM or 50 μM", "description": "FIG. 7. C29 is not cytotoxic to HEK-TLR2 stable transfectants. Cells were pretreated for 1 hr with media, vehicle (65 μM NaOH), or C29 (10 μM or 50 μM) and then stimulated with P3C (200 ng/mL), P2C (200 ng/mL), or hTNF-α (300 ng/mL) for 1 hr in the presence of media, vehicle, or C29. Supernatants of cell cultures were collected and analyzed for LDH release as a measure of cell cytotoxicity with Triton X-lysed cells serving as the positive control. LDH release is representative of 1 of 2 independent experiments carried out in duplicate.\nCellular cytotoxicity was determined by measuring lactate dehydrogenase (LDH) activity released in the media after treatment with TLR agonist or TNF-α in the presence of media, vehicle (NaOH), or C29 using the CytoTox 96 nonradioactive cytotoxicity assay (Promega, Madison, WI) and quantified by measuring wavelength absorbance at 490 nm. Treatment of cells with Triton X-100 served as the positive control."}, "[2]": {"test_system": "MyD88-independent pathway", "assay": "IFN-β mRNA in murine macrophages stimulated with agonists that induce IFN-β", "type": "cell-based", "details": "C29 50 μM, 3 hrs", "description": "FIG. 10. Examining the broader specificity of C29 for TLR2 signaling. (A, B) Total RNA was extracted from murine macrophages that had been pretreated for 1 hr with vehicle (65 μM NaOH) or C29 (50 μM) and then stimulated with P3C (50 ng/mL), P2C (100 ng/mL), zymosan (10 μg/mL), S. aureus LTA (1 μg/mL), poly(I:C) (10 μg/mL), LPS (100 ng/mL), R848 (10 μg/mL), or CpG ODN 1668 (5 μM) for 3 hrs in the presence of vehicle or C29. IL-1β and IFN-β mRNA were measured as described in FIG. 1, panel D. (C) THP-1 cells were plated in the presence of PMA (20 ng/mL) for 24 hrs and washed twice in media. Total RNA was extracted from cell cultures pretreated for 1 hr with vehicle (260 μM NaOH) or C29 (50 μM, 100 μM, or 200 μM) and then stimulated with zymosan (10 μg/mL) or S. aureus LTA (1 μg/mL) for 4 hrs in the presence of vehicle or C29. IL-1β mRNA was measured as described in FIG. 1, panel B. Quantitative real-time results represent the mean±SEM from 2 independent experiments each carried out in duplicate (*, p≤0.05; **, p≤0.01; ***, p≤0.001).\nCytokine gene expression was measured by qRT-PCR with transcript-specific primers using SYBR Green in the ABI Prism 7900 Fast Real Time PCR system (Applied Biosystems, Foster City, CA) as described (Cole L E, et al. (2006) Journal of immunology 176(11):6888-6899). […]"}, "[3]": {"test_system": "MAPK and NF-κβ activation", "assay": "Western analysis of MAPK and NF-κβ activation in murine peritoneal macrophages", "type": "cell-based", "details": "C29 50 μM, P3C 50 ng/mL", "description": "FIG. 2. C29 inhibits ligand-induced interaction of TLR2 with MyD88 and blocks MAPK and NF-κβ activation. (A) THP-1 cells were cultured in the presence of PMA (20 ng/mL) for 24 hrs and washed twice in media. THP-1 human monocytes were pretreated with media, vehicle (195 μM NaOH), or C29 (150 μM) for 1 hr and treated with P3C (50 ng/mL) in the presence of media, vehicle, or C29 for 15 or 30 min. Co-immunoprecipitation (IP) was carried out using anti-MyD88 antibody and Western analysis (IB) using whole cell lysates. (B) Densitometry analysis (mean±SEM) of 3 independent experiments as shown in (A). (C) Murine peritoneal macrophages were pretreated for 1 hr with media, vehicle (65 μM NaOH), or C29 (50 μM) and treated with P3C (50 ng/mL) for 5-30 min in the presence of media, vehicle, or C29. IB was performed using whole cell lysates and antibodies directed against the signaling intermediates indicated. β-actin was probed as a loading protein. Panel A is representative of 3 independent experiments and panel B is the mean±SEM from 3 independent experiments (*, p≤0.05). Panel B is representative of 2 independent experiments.\nCells were treated and washed once with 1×PBS and lysed using buffer containing 20 mM HEPES (pH 7.4), 150 mM NaCl, 1 mM EDTA, 1 mM EGTA (pH 8.0), 50 mM NaF, 0.5% Triton X-100, 1 mM Na3VO4, 1 mM DTT, 1 mM PMSF, and protease inhibitor (Roche Applied Science, Indianapolis, IN). Cells were harvested and protein was quantified using BCA Protein assay reagents (Thermo Scientific/Pierce, Rockford, IL). Whole cell lysates (500 μg/500 μL) were precleared using 10 μL of pre-washed Protein G Agarose (Roche Applied Science, Indianapolis, IN) for 2 hours at 4° C. with rotation. Precleared samples were incubated with the respective antibody and rotated overnight at 4° C. Pre-washed Protein G (40 μL) was added to each sample and rotated for 4 h at 4° C. Beads were washed three times in lysis buffer (without protease inhibitor) and finally in complete lysis buffer. Beads were resuspended in 2× Laemmli Sample Buffer and boiled for 10 min. […]"}, "TLR2/1": {"target": "TLR2/1 (Homo sapiens, UniProt O60603)", "sequence (O60603 21-784)": "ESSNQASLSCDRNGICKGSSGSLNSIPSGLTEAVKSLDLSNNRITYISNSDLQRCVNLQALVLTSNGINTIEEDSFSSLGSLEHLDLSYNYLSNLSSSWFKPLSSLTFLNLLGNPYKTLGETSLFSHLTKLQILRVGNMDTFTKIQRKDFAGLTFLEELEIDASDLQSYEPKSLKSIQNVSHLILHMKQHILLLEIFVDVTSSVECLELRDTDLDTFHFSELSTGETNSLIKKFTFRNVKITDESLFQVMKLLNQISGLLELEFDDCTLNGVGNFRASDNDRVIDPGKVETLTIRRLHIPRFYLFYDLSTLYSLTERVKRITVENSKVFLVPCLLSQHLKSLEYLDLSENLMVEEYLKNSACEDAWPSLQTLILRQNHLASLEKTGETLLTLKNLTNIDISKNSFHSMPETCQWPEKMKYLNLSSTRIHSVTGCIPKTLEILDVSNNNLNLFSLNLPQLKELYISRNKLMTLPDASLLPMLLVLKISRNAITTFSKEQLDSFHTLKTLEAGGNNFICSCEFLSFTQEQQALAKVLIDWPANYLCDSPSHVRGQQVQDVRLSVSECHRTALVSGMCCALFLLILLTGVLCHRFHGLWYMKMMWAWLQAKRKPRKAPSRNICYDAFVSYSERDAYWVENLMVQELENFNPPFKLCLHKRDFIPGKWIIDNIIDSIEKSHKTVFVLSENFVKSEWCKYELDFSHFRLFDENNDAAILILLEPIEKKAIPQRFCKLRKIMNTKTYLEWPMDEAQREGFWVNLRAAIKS", "assay": "IL-1β mRNA in THP-1 cells stimulated with TLR2/1 agonists (P3C, S. aureus LTA)", "type": "cell-based", "set-up": "expressed in transfected cells", "details": "C29 50, 100 or 200 μM"}, "TLR2/6": {"target": "TLR2/6 (Homo sapiens, UniProt O60603)", "sequence (O60603 21-784)": "as above", "assay": "IL-1β mRNA in THP-1 cells stimulated with TLR2/6 agonists (P2C, zymosan)", "type": "cell-based", "set-up": "expressed in transfected cells", "details": "C29 50, 100 or 200 μM"}},
  "note": "Entries after “also recorded” stand apart in the source; their conditions may differ.",
  "data": [
    {"compound": "COc1cccc(/C=N/c2cccc(C(=O)O)c2C)c1O", "note": "[Compound C29]", "values": [
      {"measurement": "cytotoxicity (LDH release)", "setting": "[1]", "value": "no effect; also recorded: not cytotoxic"},
      {"measurement": "IFN-β mRNA (MyD88-independent pathway)", "setting": "[2]", "value": "no significant inhibitory effect"},
      {"measurement": "P3C-induced NF-κβ activation", "setting": "[3]; 5 to 30 min", "value": "reduced NF-κβ activation"},
      {"measurement": "P3C-induced degradation of IκBα", "setting": "[3]; 15 and 30 min", "value": "prevented P3C-induced degradation of IκBα"},
      {"measurement": "P3C-induced MAPK activation", "setting": "[3]; 30 min", "value": "blocked robust MAPK activation"},
      {"measurement": "P3C-induced IL-1β gene expression", "setting": "TLR2/1; P3C 50 ng/mL, 1 h and 4 h", "value": "inhibited P3C- and P2C-induced IL-1β gene expression significantly"},
      {"measurement": "LTA SA-induced IL-1β mRNA", "setting": "TLR2/1; S. aureus LTA 1 μg/mL 4 hrs", "value": "blocked zymosan- and LTA SA-induced IL-1β mRNA dose-dependently"},
      {"measurement": "P2C-induced IL-1β gene expression", "setting": "TLR2/6; P2C 50 ng/mL, 1 h and 4 h", "value": "inhibited P3C- and P2C-induced IL-1β gene expression significantly"},
      {"measurement": "zymosan-induced IL-1β mRNA", "setting": "TLR2/6; zymosan 10 μg/mL 4 hrs", "value": "blocked zymosan- and LTA SA-induced IL-1β mRNA dose-dependently"}
    ]}
  ]
}
